Measurements taken from PubChem BioAssay (NCI).
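Briefly, cells in 96-well plates were exposed to five compound concentrations for 48 h, and endpoints were estimated by linear interpolation. Here, GI50 denotes the concentration required for 50% inhibition of growth. Definition used: TGI = concentration required for complete inhibition of growth.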

Experiments:
Assay in all cases: inhibition of tumour cell growth, NCI panel, 48 h
[1] = system: 786-0 renal
[2] = system: A498 renal
[3] = system: A549 NSCLC
[4] = system: ACHN renal
[5] = system: BT-549 breast
[6] = system: CAKI-1 renal
[7] = system: CCRF-CEM leukemia
[8] = system: COLO 205 colon
[9] = system: DU-145 prostate
[10] = system: EKVX NSCLC
[11] = system: HCC-2998 colon
[12] = system: HCT-116 colon
[13] = system: HCT-15 colon
[14] = system: HL-60(TB) leukemia
[15] = system: HOP-62 NSCLC
[16] = system: HOP-92 NSCLC
[17] = system: HS 578T breast
[18] = system: HT29 colon
[19] = system: IGROV1 ovarian
[20] = system: K-562 leukemia
[21] = system: KM12 colon
[22] = system: LOX IMVI melanoma
[23] = system: M14 melanoma
[24] = system: MALME-3M melanoma
[25] = system: MCF7 breast
[26] = system: MDA-MB-231 breast
[27] = system: MDA-MB-435
[28] = system: MDA-MB-468 breast
[29] = system: MOLT-4 leukemia
[30] = system: NCI-H226 lung
[31] = system: NCI-H23 lung
[32] = system: NCI-H460 lung
[33] = system: NCI-H522 lung
[34] = system: NCI/ADR-RES ovarian
[35] = system: OVCAR-3 ovarian
[36] = system: OVCAR-4 ovarian
[37] = system: OVCAR-5 ovarian
[38] = system: OVCAR-8 ovarian
[39] = system: PC-3 prostate
[40] = system: RPMI-8226 leukemia
[41] = system: RXF 393 renal
[42] = system: SF-268 CNS
[43] = system: SF-295 CNS
[44] = system: SF-539 CNS
[45] = system: SK-MEL-2 melanoma
[46] = system: SK-MEL-28 melanoma
[47] = system: SK-MEL-5 melanoma
[48] = system: SK-OV-3 ovarian
[49] = system: SN12C renal
[50] = system: SNB-19 CNS
[51] = system: SNB-75 CNS
[52] = system: SW-620 colon
[53] = system: T-47D breast
[54] = system: TK-10 renal
[55] = system: U251 CNS
[56] = system: UACC-257 melanoma
[57] = system: UACC-62 melanoma
[58] = system: UO-31 renal

## COc1ccc2[nH]c(O)c(N=NC(=O)Cn3c(-c4ccccc4)nc4cc(C)ccc43)c2c1
[1]
  GI50: 16 µM
  TGI: 30.2 µM
[2]
  GI50: 17.1 µM
  TGI: 32.6 µM
[3]
  GI50: 16.6 µM
  TGI: 36.7 µM
[4]
  GI50: 14.5 µM
  TGI: 27.5 µM
[5]
  GI50: 13.4 µM
  TGI: 27.9 µM
[6]
  GI50: 12.6 µM
  TGI: 27 µM
[7]
  GI50: 17.3 µM
  TGI: 43.6 µM
[8]
  GI50: 17.5 µM
  TGI: 35.1 µM
[9]
  GI50: 19.9 µM
  TGI: 44.4 µM
[10]
  GI50: 11 µM
  TGI: 24.6 µM
[11]
  GI50: 17.5 µM
  TGI: 31.6 µM
[12]
  GI50: 14 µM
  TGI: 28 µM
[13]
  GI50: 15.5 µM
  TGI: 31.1 µM
[14]
  GI50: 17.5 µM
  TGI: 42.3 µM
[15]
  GI50: 16 µM
  TGI: 35.6 µM
[16]
  GI50: 3.3 µM
  TGI: 18 µM
[17]
  GI50: 13.2 µM
  TGI: 46.1 µM
[18]
  GI50: 21.5 µM
  TGI: 55.5 µM
[19]
  GI50: 14.7 µM
  TGI: 29.6 µM
[20]
  GI50: 18 µM
  TGI: 62.4 µM
[21]
  GI50: 18.7 µM
  TGI: 42.5 µM
[22]
  GI50: 14.9 µM
  TGI: 28.3 µM
[23]
  GI50: 15.7 µM
  TGI: 31.2 µM
[24]
  GI50: 14.5 µM
  TGI: 28.8 µM
[25]
  GI50: 13.5 µM
  TGI: 31.6 µM
[26]
  GI50: 13.1 µM
  TGI: 26.4 µM
[27]
  GI50: 16.7 µM
  TGI: 34.7 µM
[28]
  GI50: 14.9 µM
  TGI: 30.2 µM
[29]
  GI50: 10.6 µM
  TGI: 37.2 µM
[30]
  GI50: 14 µM
  TGI: 30.7 µM
[31]
  GI50: 16.7 µM
  TGI: 31.8 µM
[32]
  GI50: 19.3 µM
  TGI: 42.3 µM
[33]
  GI50: 15.2 µM
  TGI: 32.4 µM
[34]
  GI50: 16.8 µM
  TGI: 34.5 µM
[35]
  GI50: 17.5 µM
  TGI: 42.9 µM
[36]
  GI50: 15 µM
  TGI: 36.9 µM
[37]
  GI50: 14.9 µM
  TGI: 28.6 µM
[38]
  GI50: 15.7 µM
  TGI: 37.1 µM
[39]
  GI50: 10.7 µM
  TGI: 26.5 µM
[40]
  GI50: 9.97 µM
  TGI: 35.9 µM
[41]
  GI50: 2370 nM
  TGI: 12.6 µM
[42]
  GI50: 18.5 µM
  TGI: 64.2 µM
[43]
  GI50: 14.3 µM
  TGI: 29 µM
[44]
  GI50: 14.9 µM
  TGI: 28.5 µM
[45]
  GI50: 14.9 µM
  TGI: 30.4 µM
[46]
  GI50: 16.5 µM
  TGI: 30.9 µM
[47]
  GI50: 15 µM
  TGI: 28.5 µM
[48]
  GI50: 15.8 µM
  TGI: 31.3 µM
[49]
  GI50: 13.5 µM
  TGI: 26.9 µM
[50]
  GI50: 16.2 µM
  TGI: 32.6 µM
[51]
  GI50: 9.86 µM
  TGI: 24.2 µM
[52]
  GI50: 20.1 µM
  TGI: 47.6 µM
[53]
  GI50: 7.33 µM
  TGI: 28.1 µM
[54]
  GI50: 29 µM
  TGI: 77.3 µM
[55]
  GI50: 17 µM
  TGI: 36.2 µM
[56]
  GI50: 15.9 µM
  TGI: 31.7 µM
[57]
  GI50: 12.4 µM
  TGI: 25.5 µM
[58]
  GI50: 7.52 µM
  TGI: 23.7 µM
